Drawing on patent publication US20120202794A1 (priority 2011, published 2012), this text covers EC90 and CC90 for 27 compounds.

One data set concerns HCV Replicon 1b. Nature of the data set: HCV inhibition assay, HCV replicon 1b (Clone A or ET-lunet cells; RT-PCR or luciferase reporter). The class given is cell-based. To be noted: Hepatitis C virus, 96 h, HCV replicon 1b; 4 days incubation; read-out: Replicon 1b potency EC90. Put shortly: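 Inhibition read either as luciferase signal (ET replicon) or as HCV 5′-NTR RNA by RT-PCR relative to rRNA, % = (1−2^−ΔΔCt)×100, against DMSO controls, giving EC50 and EC90. Cells: Clone A or ET-lunet, seeded 1500 or 3000/well, exposed 4 days at 37 °C, 5% CO2, 0.5% DMSO.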
In general terms: A replicon is a self-replicating genome or part of one, used to study replication in cells.

Data set [1] is described as follows: Cell cytotoxicity assay (MTS), CC90 as reported in Table 1, cell line not stated. In kind it is cell-based. The note with it: human, cell line not given. The gist of the method: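 MTS read-out (490 nm, 2 h dye step) after 8-day exposure at 37° C. Huh7, HepG2, BxPC3 were seeded at 2×10^3 and CEM at 5×10^3 cells/well, with compound serially diluted from 100 μM. CC90 comes from comparison with untreated control wells.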

The EC90 is the concentration needed for an effect of 90%. Take `CC(C)C[C@H]1C(=O)N[C@@H](C2CCOCC2)CN1C(=O)c1noc(-c2ccc(F)cc2)n1` [Compound 474, (3S,6S)-4-(5-(4-fluorophenyl)-1,2,4-oxadiazole-3-carbonyl)-3-isobutyl-6-(tetrahydro-2H-pyran-4-yl)piperazin-2-one]: the EC90 in the data set on HCV Replicon 1b was 0.35 µM. Besides, the CC90 at 8 days in data set [1] (MTS assay, 8 days incubation) was > 10 µM.

As to `CC(C)C[C@H]1CN(C(=O)c2cc(-c3ccc(Cl)cc3)ns2)[C@@H](CC(C)C)C(=O)N1` [Compound 105], the EC90 with HCV Replicon 1b worked out at 1.49 µM. Besides, in data set [1], the CC90 at 8 days is > 10 µM.

Turning to `CC(C)C[C@H]1CN(C(=O)c2cc(C3CC3)on2)[C@@H](CC(C)C)C(=O)N1` [Compound 106], the EC90 in the data set with HCV Replicon 1b turned out to be 8.77 µM. Besides, in data set [1], the CC90 at 8 days is > 10 µM.

In the case of `CCc1cc(C(=O)N2C[C@H](CC(C)C)NC(=O)[C@@H]2CC(C)C)no1` [Compound 107], the EC90 in the data set on HCV Replicon 1b worked out at 8.41 µM. For the same compound, the CC90 at 8 days in data set [1] is > 10 µM.

`CC(C)C[C@H]1CN(C(=O)c2cc(-c3ccc(C4CC4)cc3)on2)[C@@H](CC(C)C)C(=O)N1` [Compound 284, (3S,6S)-4-(5-(4-cyclopropylphenyl)isoxazole-3-carbonyl)-3,6-diisobutylpiperazin-2-one]: the EC90 with HCV Replicon 1b was > 10 µM. Further, in data set [1] (MTS assay, 8 days incubation), the CC90 at 8 days is > 10 µM.

As for `CC(C)C[C@H]1C(=O)N[C@@H](c2cccs2)CN1C(=O)c1nc(-c2ccc(F)cc2)no1` [Compound 431, (3S,6R)-4-(3-(4-fluorophenyl)-1,2,4-oxadiazole-5-carbonyl)-3-isobutyl-6-(thiophen-2-yl)piperazin-2-one], in the data set on HCV Replicon 1b, the concentration for an effect of 90% (EC90) was 0.024 µM. Besides, in data set [1] (MTS assay, 8 days incubation), the CC90 at 8 days is > 10 µM.

`CC(C)C[C@H]1CN(C(=O)C#Cc2cc(F)c(F)c(F)c2)[C@@H](CC(C)C)C(=O)N1` [Compound 121]: in the data set with HCV Replicon 1b, the EC90 came to 3.23 µM. For the same compound, the CC90 at 8 days in data set [1] was > 10 µM.

Turning to `CC(C)C[C@H]1C(=O)N[C@@H](c2ccccc2)CN1C(=O)[C@@H]1C[C@H]1c1ccccc1` [Compound 234, (3S,6S)-3-isobutyl-6-phenyl-4-((1R,2R)-2-phenylcyclopropanecarbonyl)piperazin-2-one], the EC90 with HCV Replicon 1b is 0.3 µM. The CC90 at 8 days in data set [1] is > 10 µM.

With `CC(C)C[C@H]1C(=O)N[C@H](c2ccccc2)CCN1C(=O)c1cc(-c2ccc(F)cc2)on1` [Compound 415, (3S,7S)-4-(5-(4-fluorophenyl)isoxazole-3-carbonyl)-3-isobutyl-7-phenyl-1,4-diazepan-2-one], the EC90 with HCV Replicon 1b is > 10 µM. Further, in data set [1] (MTS assay, 8 days incubation), the CC90 at 8 days was > 10 µM.

Turning to `CC(C)C[C@H]1CN(C(=O)/C=C/c2ccc(F)cc2)[C@@H](CC(C)C)C(=O)N1` [Compound 80], the EC90 in the data set with HCV Replicon 1b worked out at 2.49 µM. Moreover, in data set [1], the CC90 at 8 days is > 10 µM.

Turning to `CC(C)C[C@H]1C(=O)N[C@@H](CC2CC2)CN1Cc1cc(-c2ccc(Cl)cc2)on1` [Compound 209, (3S,6S)-4-((5-(4-chlorophenyl)isoxazol-3-yl)methyl)-6-(cyclopropylmethyl)-3-isobutylpiperazin-2-one], the EC90 in the data set on HCV Replicon 1b was determined as 0.67 µM. Further, the CC90 at 8 days in data set [1] was > 10 µM.

For `CC(C)C[C@H]1CN(C(=O)/C=C/c2ccc(Cl)cc2)[C@@H](CC(C)C)C(=O)N1` [Compound 72], the 90% effect concentration (EC90) in the data set with HCV Replicon 1b stood at 2.5 µM. In data set [1], the CC90 at 8 days was > 10 µM.

For the compound `CSCCC1C(=O)N[C@@H](c2ccccc2)CN1C(=O)c1cc(-c2ccc(F)cc2)on1` (stereo in doubt) [Compound 458, (3R,6S)-4-(5-(4-fluorophenyl)isoxazole-3-carbonyl)-3-((methylthio)ethyl)-6-phenylpiperazin-2-one], in the data set with HCV Replicon 1b, the 90% effect concentration (EC90) was found to be 2.07 µM. Also, in data set [1] (MTS assay, 8 days incubation), the CC90 at 8 days is > 10 µM.

For `CC(C)C[C@H]1CN(C(=O)c2cc(-c3ccc(S(C)(=O)=O)cc3)on2)[C@@H](CC(C)C)C(=O)N1` [Compound 176], in the data set with HCV Replicon 1b, the EC90 was > 20 µM. Further, the CC90 at 8 days in data set [1] is > 10 µM.

With `CC(C)C[C@H]1C(=O)N[C@@H](C(C)C)CN1C(=O)c1nc(-c2ccc(F)cc2)no1` [Compound 153], in the data set with HCV Replicon 1b, the EC90 was 0.22 µM. Also, the CC90 at 8 days in data set [1] is > 10 µM.

Take `CC(C)C[C@H]1CN(Cc2cc(F)ccc2F)[C@@H](CC(C)C)C(=O)N1` [Compound 222, (3S,6S)-4-(2,5-difluorobenzyl)-3,6-diisobutylpiperazin-2-one]: the EC90 with HCV Replicon 1b worked out at 9.7 µM. Moreover, the CC90 at 8 days in data set [1] is > 10 µM.

As to `CSC[C@H]1CN(Cc2cc(-c3ccc(F)cc3)on2)[C@@H](CC(C)C)C(=O)N1` [Compound 217, (3S,6R)-4-[5-(4-Fluoro-phenyl)-isoxazol-3-ylmethyl]-3-isobutyl-6-methylsulfanylmethyl-piperazin-2-one], the 90% effect concentration (EC90) with HCV Replicon 1b worked out at 0.82 µM. The CC90 at 8 days in data set [1] is > 10 µM.

Take `CC(C)C[C@H]1CN(C(=O)/C=C/c2cccc(Cl)c2)[C@@H](CC(C)C)C(=O)N1` [Compound 264, (3S,6S)-4-[3-(3-chlorophenyl)-acryloyl]-3,6-diisobutyl-piperazin-2-one]: the EC90 in the data set with HCV Replicon 1b came out at 8.1 µM. For the same compound, the CC90 at 8 days in data set [1] (MTS assay, 8 days incubation) is > 10 µM.

Regarding `CC(C)(C)C[C@H]1CN(C(=O)[C@@H]2C[C@H]2c2ccccc2)[C@@H](CC(C)(C)C)C(=O)N1` [Compound 281, (3S,6S)-3,6-dineopentyl-4-((1R,2R)-2-phenylcyclopropanecarbonyl)-piperazin-2-one], the EC90 with HCV Replicon 1b is > 10 µM. Moreover, the CC90 at 8 days in data set [1] (MTS assay, 8 days incubation) was > 10 µM.

Turning to `CC(C)C[C@H]1CN(C(=O)/C=C/c2cc(F)cc(F)c2)[C@@H](CC(C)C)C(=O)N1` [Compound 95], the EC90 with HCV Replicon 1b was found to be 9.31 µM. For the same compound, the CC90 at 8 days in data set [1] is > 10 µM.

For `CC(C)C[C@H]1C(=O)N[C@@H](C2CCCCC2)CN1C(=O)c1noc(-c2ccc(F)cc2F)c1F` [Compound 389, (3S,6S)-6-cyclohexyl-4-(5-(2,4-difluorophenyl)-4-fluoroisoxazole-3-carbonyl)-3-isobutylpiperazin-2-one], the EC90 with HCV Replicon 1b came to 1.45 µM. Moreover, in data set [1] (MTS assay, 8 days incubation), the CC90 at 8 days is > 10 µM.

Regarding `COc1ccc(/C=C/C(=O)N2C[C@H](CC(C)C)NC(=O)[C@@H]2CC(C)C)cc1` [Compound 263, (3S,6S)-3,6-diisobutyl-4-((E)-3-(4-methoxyphenyl)acryloyl)piperazin-2-one], in the data set on HCV Replicon 1b, the EC90 was 8.7 µM. In addition, the CC90 at 8 days in data set [1] (MTS assay, 8 days incubation) is > 10 µM.

Turning to `CC(C)C[C@H]1CN(C(=O)/C=C/c2ccc(C(F)(F)F)cc2F)[C@@H](CC(C)C)C(=O)N1` [Compound 93], the EC90 in the data set on HCV Replicon 1b amounted to 9.62 µM. The CC90 at 8 days in data set [1] is > 10 µM.

Consider `CC(C)C[C@H]1C(=O)N[C@@H](C2CCCC2)CN1C(=O)c1noc2c1CCc1cc(F)ccc1-2` [Compound 305, (3S,6S)-6-cyclopentyl-4-(7-fluoro-4,5-dihydronaphtho[2,1-d]isoxazole-3-carbonyl)-3-isobutylpiperazin-2-one], for which the concentration for an effect of 90% (EC90) in the data set on HCV Replicon 1b was 1.61 µM. In data set [1] (MTS assay, 8 days incubation), the CC90 at 8 days is > 10 µM.

`CC(C)C[C@H]1CN(C(=O)/C=C/c2ccc(S(C)(=O)=O)cc2)[C@@H](CC(C)C)C(=O)N1` [Compound 92]: the EC90 with HCV Replicon 1b was > 10 µM. Moreover, the CC90 at 8 days in data set [1] was > 10 µM.

`CC(C)C[C@H]1C(=O)N[C@@H](C2CCCCC2)CN1C(=O)c1cc(-c2ccc(F)cc2)no1` [Compound 193]: the EC90 in the data set on HCV Replicon 1b worked out at 0.05 µM. In addition, in data set [1], the CC90 at 8 days was > 10 µM.

Turning to `CC(C)C[C@H]1CN(Cc2ccc(F)c(Cl)c2)[C@@H](CC(C)C)C(=O)N1` [Compound 227, (3S,6S)-4-(3-Chloro-4-fluoro-benzyl)-3,6-diisobutyl-piperazin-2-one], in the data set with HCV Replicon 1b, the EC90 was > 10 µM. Moreover, the CC90 at 8 days in data set [1] was > 10 µM.
